Read-outs that look alike come from different tables or passages of the source.
How the values were obtained:
human D2 receptor = human D2 receptor (Homo sapiens (Human), UniProt P14416); test: Radioligand binding assay, [3H]-spiperone, human D2 receptor; details: membranes of HEK293 EBNA cells expressing human D2; 0.7 nM [3H]-spiperone
How it was run: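 Competition binding used ~0.7 nM [3H]-spiperone, 1 h at room temperature, pH 7.4 Tris/salt buffer, on transiently transfected HEK293 EBNA membranes bearing human D2.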

human D3 receptor = human D3 receptor (Homo sapiens (Human), UniProt P35462); test: Radioligand binding assay, [3H]-spiperone, human D3 receptor; details: membranes of HEK293 EBNA cells expressing human D3; 0.5 nM [3H]-spiperone
human D3 receptor, sequence (P35462 whole entry): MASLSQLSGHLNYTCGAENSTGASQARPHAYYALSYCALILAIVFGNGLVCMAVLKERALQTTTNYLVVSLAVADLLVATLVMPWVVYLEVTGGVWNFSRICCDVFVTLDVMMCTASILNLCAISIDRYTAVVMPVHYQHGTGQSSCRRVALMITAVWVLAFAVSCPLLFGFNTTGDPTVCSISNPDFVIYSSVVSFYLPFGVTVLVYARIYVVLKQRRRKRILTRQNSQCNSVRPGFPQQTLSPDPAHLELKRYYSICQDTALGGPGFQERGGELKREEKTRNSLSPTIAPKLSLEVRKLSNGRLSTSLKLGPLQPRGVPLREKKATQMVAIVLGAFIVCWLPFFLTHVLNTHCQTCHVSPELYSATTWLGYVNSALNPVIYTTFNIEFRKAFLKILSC
How it was run: (§1)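 Incubation was 1 h at RT, using 1.1 nM [3H]-ketanserin at 5-HT2A or 0.5 nM [3H]-spiperone at D3, on membranes of transiently transfected HEK293 EBNA cells. Nonspecific binding was set with 10 μM unlabelled spiperone.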

human 5-HT2A receptor = human 5-HT2A receptor (Homo sapiens (Human), UniProt P28223); test: Radioligand binding assay, [3H]-ketanserin, human 5-HT2A receptor
human 5-HT2A receptor, sequence (P28223 whole entry): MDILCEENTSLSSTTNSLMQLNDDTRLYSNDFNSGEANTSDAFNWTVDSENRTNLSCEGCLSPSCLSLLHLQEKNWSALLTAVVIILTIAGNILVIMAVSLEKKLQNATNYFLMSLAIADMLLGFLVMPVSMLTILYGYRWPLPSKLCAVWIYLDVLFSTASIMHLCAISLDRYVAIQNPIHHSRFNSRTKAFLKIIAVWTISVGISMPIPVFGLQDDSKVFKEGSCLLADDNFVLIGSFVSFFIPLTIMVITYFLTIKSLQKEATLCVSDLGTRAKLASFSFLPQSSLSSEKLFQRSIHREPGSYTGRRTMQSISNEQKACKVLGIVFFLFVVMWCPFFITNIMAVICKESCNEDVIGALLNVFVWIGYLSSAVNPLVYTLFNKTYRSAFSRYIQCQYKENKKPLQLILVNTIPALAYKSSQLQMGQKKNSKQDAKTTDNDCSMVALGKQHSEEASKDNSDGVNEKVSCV
How it was run: as §1

[1] = membranes of HEK293 EBNA cells expressing human 5-HT2A, 1.1 nM [3H]-ketanserin

human D2 receptor, sequence (P14416 whole entry): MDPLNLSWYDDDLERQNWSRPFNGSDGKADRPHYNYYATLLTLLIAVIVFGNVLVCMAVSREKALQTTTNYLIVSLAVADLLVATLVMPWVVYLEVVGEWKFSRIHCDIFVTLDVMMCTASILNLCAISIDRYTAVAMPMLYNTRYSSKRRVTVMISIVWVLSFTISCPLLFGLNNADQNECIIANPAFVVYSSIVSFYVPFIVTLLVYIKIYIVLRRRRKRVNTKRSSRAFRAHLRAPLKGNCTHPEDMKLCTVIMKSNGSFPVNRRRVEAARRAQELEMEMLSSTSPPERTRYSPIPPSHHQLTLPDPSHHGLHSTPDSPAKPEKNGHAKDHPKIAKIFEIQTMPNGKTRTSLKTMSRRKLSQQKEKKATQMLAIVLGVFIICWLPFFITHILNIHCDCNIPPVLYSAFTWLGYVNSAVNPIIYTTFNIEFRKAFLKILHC

Structure (SMILES) | Ki (human D2 receptor) | Ki (human D3 receptor) | Ki (human 5-HT2A receptor; [1]) | melting point | Ki (human 5-HT2A receptor)
CO[C@H]1CC[C@H](CC(=O)N[C@H]2CC[C@H](CCN3CCN(c4nccc5c4CCO5)CC3)CC2)CC1 [Example 65, trans-N-(4-{2-[4-(2,3-Dihydro-furo[3,2-c]pyridin-4-yl)-piperazin-1-yl]-ethyl}-cyclohexyl)-2-trans-(4-methoxy-cyclohexyl)-acetamide] | 2450 nM | 24.1 nM | 14.9 nM | 192.5 °C | 
O=C(CC1CC1)N[C@H]1CC[C@H](CCN2CCN(c3nccc4c3CCO4)CC2)CC1 [Example 51, trans-2-Cyclopropyl-N-(4-{2-[4-(2,3-dihydro-furo[3,2-c]pyridin-4-yl)-piperazin-1-yl]-ethyl}-cyclohexyl)-acetamide] | 587 nM | 5.07 nM |  | 193 °C | 13.7 nM
O=C(CO)N[C@H]1CC[C@H](CCN2CCN(c3nccc4c3CCO4)CC2)CC1 [Example 40, trans-N-(4-{2-[4-(2,3-Dihydrofuro[3,2-c]pyridin-4-yl)-piperazin-1-yl]-ethyl}-cyclohexyl)-hydroxyacetamide] | 1570 nM | 15.9 nM | 12.2 nM | 237 °C | 
O=C(N[C@H]1CC[C@H](CCN2CCN(c3nccc4c3CCO4)CC2)CC1)C1CC1 [Example 63, Cyclopropanecarboxylic acid trans-(4-{2-[4-(2,3-dihydro-furo[3,2-c]pyridin-4-yl)-piperazin-1-yl]-ethyl}-cyclohexyl)-amide] | 486 nM | 18.5 nM | 11.1 nM | 213 °C | 
COC(CCC(=O)N[C@H]1CC[C@H](CCN2CCN(c3nccc4c3CCO4)CC2)CC1)OC [Example 114, trans-N-(4-{2-[4-(2,3-Dihydro-furo[3,2-c]pyridin-4-yl)-piperazin-1-yl]-ethyl}-cyclohexyl)-4,4-dimethoxy-butyramide] | 2370 nM | 68 nM | 18.1 nM | 205.5 °C | 
O=C(CC1CCCO1)N[C@H]1CC[C@H](CCN2CCN(c3nccc4c3CCO4)CC2)CC1 (mixture of isomers) [Example 64, trans-N-(4-{2-[4-(2,3-Dihydro-furo[3,2-c]pyridin-4-yl)-piperazin-1-yl]-ethyl}-cyclohexyl)-2-rac-(tetrahydro-furan-2-yl)-acetamide] | 1260 nM | 24.2 nM | 16.7 nM | 181.5 °C | 
COCCC(=O)N[C@H]1CC[C@H](CCN2CCN(c3ncc(C)c4c3CCO4)CC2)CC1 [Example 111, trans-3-Methoxy-N-(4-{2-[4-(7-methyl-2,3-dihydro-furo[3,2-c]pyridin-4-yl)-piperazin-1-yl]-ethyl}-cyclohexyl)-propionamide] | 3560 nM | 46.8 nM | 37 nM | 163.5 °C | 
O=S(=O)(N[C@H]1CC[C@H](CCN2CCN(c3nccc4c3CCO4)CC2)CC1)c1ccccc1 [Example 138, trans-N-(4-{2-[4-(2,3-Dihydro-furo[3,2-c]pyridin-4-yl)-piperazin-1-yl]-ethyl}-cyclohexyl)-benzenesulfonamide] | 243 nM | 15.5 nM | 70.5 nM | 168.5 °C | 
O=C(N[C@H]1CC[C@H](CCN2CCN(c3nccc4c3CCO4)CC2)CC1)c1cnc(N2CCOCC2)cn1 [Example 130, 5-Morpholin-4-yl-pyrazine-2-carboxylic acid trans-(4-{2-[4-(2,3-dihydro-furo[3,2-c]pyridin-4-yl)-piperazin-1-yl]-ethyl}-cyclohexyl)-amide] | 506 nM | 119 nM | 18.4 nM | 192.5 °C | 
O=C(CC1COC1)N[C@H]1CC[C@H](CCN2CCN(c3nccc4c3CCO4)CC2)CC1 [Example 77, trans-N-(4-{2-[4-(2,3-Dihydro-furo[3,2-c]pyridin-4-yl)-piperazin-1-yl]-ethyl}-cyclohexyl)-2-oxetan-3-yl-acetamide] | 755 nM | 12.1 nM | 11 nM | 195 °C | 
O=C(C[C@@H]1CCCO1)N[C@H]1CC[C@H](CCN2CCN(c3nccc4c3CCO4)CC2)CC1 [Example 69, trans-N-(4-{2-[4-(2,3-Dihydro-furo[3,2-c]pyridin-4-yl)-piperazin-1-yl]-ethyl}-cyclohexyl)-2-(S)-(tetrahydro-furan-2-yl)-acetamide] | 858 nM | 18.1 nM |  | 183.5 °C | 24.9 nM
Cc1cc2occc2c(N2CCN(CC[C@H]3CC[C@H](NC(=O)C4CCOCC4)CC3)CC2)n1 [Example 97, trans-Tetrahydro-pyran-4-carboxylic acid (4-{2-[4-(6-methyl-furo[3,2-c]pyridin-4-yl)-piperazin-1-yl]-ethyl}-cyclohexyl)-amide] | 275 nM | 14.2 nM |  | 219 °C | 25.5 nM
CC(=O)N[C@H]1CC[C@H](CCN2CCN(c3nc(C)cc4c3CCO4)CC2)CC1 [Example 100, trans-N-(4-{2-[4-(6-Methyl-2,3-dihydro-furo[3,2-c]pyridin-4-yl)-piperazin-1-yl]-ethyl}-cyclohexyl)-acetamide] | 915 nM | 7.58 nM | 215 nM | 217.5 °C | 
O=C(Cc1ccc2c(c1)OCO2)N[C@H]1CC[C@H](CCN2CCN(c3nccc4c3CCO4)CC2)CC1 [Example 122, trans-2-Benzo[1,3]dioxol-5-yl-N-(4-{2-[4-(2,3-dihydro-furo[3,2-c]pyridin-4-yl)-piperazin-1-yl]-ethyl}-cyclohexyl)-acetamide] | 3040 nM | 18.6 nM | 33.7 nM | 212 °C | 
COCCC(=O)N[C@H]1CC[C@H](CCN2CCN(c3nccc4c3CCO4)CC2)CC1 [Example 35, trans-N-(4-{2-[4-(2,3-Dihydrofuro[3,2-c]pyridin-4-yl)-piperazin-1-yl]-ethyl}-cyclohexyl)-3-methoxypropanamide] | 1490 nM | 17.4 nM | 24.1 nM | 246.5 °C | 
CC(C)C(=O)N[C@H]1CC[C@H](CCN2CCN(c3nccc4c3CCO4)CC2)CC1 [Example 75, trans-N-(4-{2-[4-(2,3-Dihydro-furo[3,2-c]pyridin-4-yl)-piperazin-1-yl]-ethyl}-cyclohexyl)-isobutyramide] | 705 nM | 16.6 nM |  | 219 °C | 10.2 nM
CC(C)(C)c1ccc(C(=O)N[C@H]2CC[C@H](CCN3CCN(c4nccc5c4CCO5)CC3)CC2)cc1 [Example 131, trans-4-tert-Butyl-N-(4-{2-[4-(2,3-dihydro-furo[3,2-c]pyridin-4-yl)-piperazin-1-yl]-ethyl}-cyclohexyl)-benzamide] | 1660 nM | 147 nM |  | 186.5 °C | 66.7 nM
O=C(N[C@H]1CC[C@H](CCN2CCN(c3nccc4c3CCO4)CC2)CC1)C1CCOC1 (mixture of isomers) [Example 42, trans-N-(4-{2-[4-(2,3-Dihydrofuro[3,2-c]pyridin-4-yl)-piperazin-1-yl]-ethyl}-cyclohexyl)-rac-tetrahydrofuran-3-carboxamide] | 609 nM | 18.2 nM | 9.9 nM | 208.5 °C | 
CC(C)(C)C(=O)N[C@H]1CC[C@H](CCN2CCN(c3nccc4c3CCO4)CC2)CC1 [Example 70, trans-N-(4-{2-[4-(2,3-Dihydro-furo[3,2-c]pyridin-4-yl)-piperazin-1-yl]-ethyl}-cyclohexyl)-2,2-dimethyl-propionamide] | 524 nM | 59.2 nM |  | 185 °C | 9.4 nM
CCCC(=O)N[C@H]1CC[C@H](CCN2CCN(c3nccc4c3CCO4)CC2)CC1 [Example 92, trans-N-(4-{2-[4-(2,3-Dihydro-furo[3,2-c]pyridin-4-yl)-piperazin-1-yl]-ethyl}-cyclohexyl)-butyramide] | 828 nM | 15.4 nM | 23.1 nM | 191 °C | 
CS(=O)(=O)c1ccc(C(=O)N[C@H]2CC[C@H](CCN3CCN(c4nccc5c4CCO5)CC3)CC2)s1 [Example 115, 5-Methanesulfonyl-thiophene-2-carboxylic acid trans-(4-{2-[4-(2,3-dihydro-furo[3,2-c]pyridin-4-yl)-piperazin-1-yl]-ethyl}-cyclohexyl)-amide] | 516 nM | 33.8 nM | 9.46 nM | 229 °C | 
CC(=O)N[C@H]1CC[C@H](CCN2CCN(c3nc(C)cc4occc34)CC2)CC1 [Example 96, trans-N-(4-{2-[4-(6-Methyl-furo[3,2-c]pyridin-4-yl)-piperazin-1-yl]-ethyl}-cyclohexyl)-acetamide] | 249 nM | 4.64 nM | 75.2 nM | 207.5 °C | 
O=C(CC(F)(F)F)N[C@H]1CC[C@H](CCN2CCN(c3nccc4c3CCO4)CC2)CC1 [Example 60, trans-N-(4-{2-[4-(2,3-Dihydro-furo[3,2-c]pyridin-4-yl)-piperazin-1-yl]-ethyl}-cyclohexyl)-3,3,3-trifluoro-propionamide] | 688 nM | 6.55 nM | 11 nM | 195.5 °C | 
CN(C)C(=O)N[C@H]1CC[C@H](CCN2CCN(c3nccc4c3CCO4)CC2)CC1 [Example 78, trans-3-(4-{2-[4-(2,3-Dihydro-furo[3,2-c]pyridin-4-yl)-piperazin-1-yl]-ethyl}-cyclohexyl)-1,1-dimethyl-urea] | 322 nM | 92.8 nM |  | 260 °C | 28.7 nM

From patent US8586579B2, “Anellated pyridine compounds” (Hoffmann-La Roche Inc., priority 2010, dated 2013)
